PMC3117839, “Efficacy Study of Novel Diamidine Compounds in a Trypanosoma evansi Goat Model” (PLoS ONE, 2011)
“Also recorded” adds a separate entry of the source. Read-outs that look alike come from different tables or passages of the source.

Tests used:
[1] = test system: T. evansi; set-up: method as in PMID 20149544; conditions: cited from earlier work; for in vitro IC50: 72 hour assay against T. evansi; for estimated MIC (minimal inhibitory concentration): estimated at least four times the IC50
[2] = test system: T. evansi; assay: Curative efficacy in T. evansi experimentally infected goats (five month follow up, overall outcome); type: in vivo, Trypanosoma evansi (Canaries (Rubio) strain) in goats
Protocol: Various diagnostic tests were used to evaluate the curative efficacy of the compounds, over a five month follow up period. The haematocrit centrifugation technique, was utilised as the standard parasitological test. The serological CATT/T. evansi test was performed to determine the presence or absence of antibodies. As a validating molecular based technique, a mini-exon 18S ribosomal PCR method designed for the detection of parasite DNA was also applied.
Fresh camel blood (400 µl) was collected from the jugular vein of a camel and 200 µl volumes inoculated (i.p.) into two mice. Once a parasitaemia had established, blood was collected via cardiac puncture and mixed with phosphate buffered saline with glucose (PSG) to provide the T. evansi suspension used for experimental goat infection. Thereafter, all 25 goats were experimentally infected intravenously (i.v.), with 10^6 parasites/goat.
Goats were divided into 8 groups, where group 1 contained four goats whilst group's 2 to 8 each contained three goats. […] All test compounds were administered intra-muscularly with four applications, on days 32, 34, 36 and 38 post-infection. Thereafter, follow up diagnostic methods were carried out for five months post treatment.

[3] = Plasma drug levels and pharmacokinetic parameters in T. evansi infected goats (HPLC/MS-MS); type: in vivo, goat
Protocol: In addition, blood samples were taken shortly before each compound injection was applied, to determine the trough levels. All samples were centrifuged at 3000 g for ten minutes. Subsequently, the plasma was removed, placed into sterile polypropylene cryotubes and stored away from light at −80°C. Mass spectrometry analysis was performed on all plasma samples using 25 µl aliquots. Calibrators were prepared separately for each analyte. Stock solutions of diminazene, DB 75, DB 867 and DB1192 were prepared in water. Curves were then prepared and analysed in duplicate, at both the beginning and the end of the analytical run. Concentrations of diminazene, DB 75, DB 867 and DB 1192 were determined by Liquid Chromatography/Triple Quadrupole Mass Spectrometry (HPLC/MS-MS). The pharmacokinetic parameters were determined using Microsoft® Excel software, with a functional set of add-ins applied, together with a graphical programme (GraphPad Prism 5, GraphPad Software Inc, USA). The compound plasma levels can be seen in Figure 1 for a) the standard drug, diminazene, b) DB 1192, c) DB 75 and d) DB 867. The plasma samples taken were analysed by HPLC/MS-MS to determine the drug concentrations (in ng/ml). From these values, the averages from the experimental goats in each group were calculated and drug concentration versus time curves were plotted with a line of best fit applied, corresponding to either the high or low compound dose tested.

[4] = 1.25 mg/kg i.m. x4, five month follow up
[5] = 2.5 mg/kg i.m. x4, five month follow up
[6] = 1.25 mg/kg x4, 72 hours after final injection
[7] = 2.5 mg/kg x4, 72 hours after final injection
[8] = 2.5 mg/kg x4, 192 hours after final injection
[9] = goat plasma, four applications of 1.25 mg/kg i.m., average plasma levels
[10] = goat plasma, four applications of 2.5 mg/kg i.m., average plasma levels

| concentration in goat plasma [3, 6] | concentration in goat plasma [3, 7] | AUC [3, 9] | Cmax [3, 9] | MRT [3, 9] | T1/2 [3, 9] | AUC [3, 10] | Cmax [3, 10] | MRT [3, 10] | T1/2 [3, 10] | SMILES | in vitro IC50 [1] | estimated MIC (minimal inhibitory concentration) [1] | curative efficacy [2, 4] | curative efficacy [2, 5] | concentration in goat plasma [3, 8] | further results |
| --- | --- | --- | --- | --- | --- | --- | --- | --- | --- | --- | --- | --- | --- | --- | --- | --- |
| 2223 ng/mL | 1923 ng/mL | 394305 | ≥3115 ng/mL | 89.5 h | 279.3 h | 358215 | ≥2530 ng/mL | 93.4 h | 473.7 h | N=C(N)c1ccc(-c2ccc(-c3ccc(C(=N)N)cc3)o2)cc1 [DB 75] | 2.3 ng/mL | 9.2 ng/mL | Complete cure; also recorded: complete curative efficacy | Complete curative efficacy | above 1500 ng/ml | concentration in goat plasma ([3]; 1.25 mg/kg x4, 192 hours after final injection): above 1500 ng/ml |
| – | – | – | – | – | – | – | – | – | – | N=C(N)c1ccc(/N=N/Nc2ccc(C(=N)N)cc2)cc1 [Diminazene, Diminazene aceturate, reference compound] | 12.5 ng/mL | 50 ng/mL | – | – | – | curative efficacy ([2]; 5 mg/kg i.m. x4, five month follow up): Complete curative efficacy; half-life ([3]; Canarian, im, goat plasma, four applications of 5 mg/kg i.m., average plasma levels): 2.46 days; AUC ([3]; Canarian, im, goat plasma, four applications of 5 mg/kg i.m., average plasma levels, read-out: AUC): 194 µg·h/mL; Cmax ([3]; Canarian, im, goat plasma, four applications of 5 mg/kg i.m., average plasma levels, read-out: Cmax): ≥ 8640 ng/mL; MRT ([3]; Canarian, im, goat plasma, four applications of 5 mg/kg i.m., average plasma levels, read-out: MRT): 70.7 h; concentration at 72 h ([3]; goat, plasma, intramuscular, 5 mg/kg x4, 72 hours after the end of treatment): 1110 ng/mL; concentration at 192 h ([3]; goat, plasma, intramuscular, 5 mg/kg x4, 192 hours after final injection): 568 ng/mL |
| above 1850 ng/ml | above 1850 ng/ml | 381604 | ≥3663 ng/mL | 87.9 h | 202.5 h | 360895 | ≥3310 ng/mL | 90.0 h | 221.4 h | N=C(N)c1ccc(-c2ccc(-c3ccc(C(=N)N)nc3)o2)cc1 [DB 867] | 1.7 ng/mL | 6.8 ng/mL | a relapse was seen during the final month of the follow up period | Complete curative efficacy; also recorded: cured; also recorded: curative efficacy was seen | – | time to relapse post treatment ([2]; 1.25 mg/kg i.m. x4): 4.5 months |

| SMILES | concentration in goat plasma [3, 6] | concentration in goat plasma [3, 7] | AUC [3, 9] | Cmax [3, 9] | MRT [3, 9] | T1/2 [3, 9] | AUC [3, 10] | Cmax [3, 10] | MRT [3, 10] | T1/2 [3, 10] | in vitro IC50 [1] | estimated MIC (minimal inhibitory concentration) [1] | curative efficacy [2, 4] | curative efficacy [2, 5] | concentration in goat plasma [3, 8] | further results |
| --- | --- | --- | --- | --- | --- | --- | --- | --- | --- | --- | --- | --- | --- | --- | --- | --- |
| Cc1cc(C(=N)N)ccc1-c1cc2cc(C(=N)N)ccc2[nH]1 [DB 1192] | 18 ng/mL | 32 ng/mL | 4809 | ≥836 ng/mL | 52.3 h | 37.0 h | 9861 | ≥1563 ng/mL | 38.4 h | 30.5 h | 10.5 ng/mL | around 40 ng/ml | incapable of curing goats; also recorded: not effective | incapable of curing goats; also recorded: not effective | 10 ng/mL | time until plasma level fell below the therapeutic threshold ([3]; both doses (2.5 and 1.25 mg/kg), post treatment): ≤ 24 h |
